Test results reported in US10596160B2, “Compositions, methods and uses for the treatment of diabetes and related conditions by controlling blood glucose level” (PHARNEXT, priority 2012, dated 2020).
“Also recorded” adds a separate entry of the source.

What was measured:
[1] = system: TNFα-induced insulin resistant 3T3-L1 differentiated adipocytes; assay: Glucose uptake in TNFα-induced insulin resistant 3T3-L1 differentiated adipocytes; type: cell-based; conditions: for enhancement of glucose uptake: drug alone, vs non-treated insulin-resistant cells (TNFα); for enhancement of glucose uptake, combination experiment / enhancement of glucose uptake, combination with metformin: vs TNFα cells; for enhancement of glucose uptake, combination experiment: Dunnett's test; for enhancement of glucose uptake, combination with metformin: combined or alone at the same concentrations
Method: 3T3L1 fibroblasts were maintained in DMEM 4.5 g/L glucose supplemented with 5% calf serum donor, 5% newborn calf serum, 100 U/mL penicillin, and 100 μg/mL streptomycin at 37° C. under a 10% CO2 atmosphere. Cells were grown on 24-well plates at a density of 2560 cells/well in 0.5 mL of growth medium (DMEM 4.5 g/L glucose supplemented with 10% FCS, 100 U/mL penicillin, and 100 μg/mL streptomycin). […] Fresh media were replaced after two days.
Glucose uptake was measured by quantification of incorporated radiolabeled glucose, after an incubation step with 2-deoxy-D[1,2^3H] glucose for 5 min. Glucose uptake was arrested by two washing steps in ice-cold PBS 1×, then were solubilized in 0.1N NaOH for 30 min. Cell-associated radioactivity was then counted using a MicroBeta counter after adding 600 μL per well of scintillant (Optiphase SuperMix3).
In parallel, protein quantification was determined by a colorimetric assay derived from the Lowry method. Results are expressed in nmol of glucose incorporated/5 mn/mg of protein and in % of control or basal condition (100%).

[2] = system: beta pancreatic INS-1 cells; assay: Prevention of beta cells apoptosis (ssDNA apoptosis detection kit); type: cell-based; set-up: concentration or dose not given beside the values; conditions: 1 h pre-incubation then 24 h in apoptotic conditions, drugs tested alone
Method: The beta pancreatic INS-1 cells have been selected for this study. The cells are cultured in complete medium, RPMI 1640 10 mM glucose supplemented with 1 mM sodium pyruvate, 50 μM 2-mercaptoethanol, 2 mM glutamine, 10 mM HEPES, 100 IU/mL penicillin, 100 μg/mL streptomycin and 10% heat-inactivated fetal calf serum (FCS), as described by Asfari et al. (23). INS-1 cells are plated (4.5×10^4 cells/well) in 96-well poly-ornithine coated plates and cultured at 37° C. in a humidified atmosphere of 95% air/5% CO2. The day after, cells are pre-incubated with the tested molecules for 1 h. Then, after a medium change, cells are cultured for 24 h in a medium containing the tested molecules and 30 mM glucose, 0.05 mM myristic acid, 25 ng/mL INF, 25 ng/mL TNF and 5 ng/mL IL.
The efficacy of compounds to prevent apoptosis is then evaluated by the highly specific apoptosis detection kit from Chemicon (Ref. APT225). This procedure is based on the detection of single-stranded DNA (ssDNA) which is a specific marker of apoptotic cells (24).
Results are expressed in optical density (OD) arbitrary unit and % of reduction of the apoptosis induced by apoptotic condition. Following a Dunnett t-test, all compounds showing a significant decrease in % of apoptotic cells compared to apoptotic control conditions are considered active.

[3] = system: hepatocytes; assay: Glucose production by hepatic cells; type: cell-based, rat; conditions: 10 μM
Method: Hepatocytes are isolated from 24 h-fasted male Wistar rats (200-250 g body weight) by ex situ liver perfusion in the presence of collagenase. Cell viability is validated by a trypan blue exclusion test. […] After plating, the medium is removed and cells are cultured for 16 h in RPMI medium without glucose (supplemented with the tested drugs for long-term evaluation). The following day, hepatic glucose production is assessed in Krebs-Ringer Bicarbonate HEPES buffer (KRBH; pH 7.4) in the presence of the neoglucogenic substrates (lactate 10 mM and pyruvate 1 mM) and the tested molecules for 4 h (short-term).
Supernatants are collected and glucose concentrations are determined using a glucose oxidase kit (Instrumentation Laboratory 0018250840). In parallel, protein quantification is performed using the colorimetric Lowry method.
Results are expressed in nmol glucose/mg protein and % of control condition (KLP: KRBH containing lactate and pyruvate).

[4] = system: H-2 Kb mouse muscle cells; assay: Glucose uptake in mouse muscle cells; type: cell-based; conditions: H-2 Kb cells, vs non-treated cells
Method: For differentiation in […], cells are switched to non-permissive culture conditions (37° C. in a humidified atmosphere of 95% air/5% CO2; DMEM 5.5 mM D-glucose supplemented with 2% FCS, 10% horse serum, 2% glutamine, 1% chicken embryo, 100 U/mL penicillin, and 100 μg/mL streptomycin).
For long-term effect evaluation, the day before glucose uptake assay, cells are incubated in DMEM 5.5 mM D-glucose supplemented with 10% horse serum, 2% SVF, 1% chicken embryo, and 2% glutamine in the presence of the tested molecules for 16 h. […]
For short-term effect evaluation, 4 hours prior to the glucose test, cells are washed and incubated in a serum-free medium (DMEM) containing 5.5 mM D-glucose and the tested molecules. Then glucose uptake is measured by incubation of the cells for 5-10 min with radiolabeled 2-deoxy-D-[1,2^3H] glucose in Krebs-Ringer HEPES buffer (KRBH; pH 7.4), 0.1% Bovine Serum Albumin (BSA), and fraction V (Sigma, A-4503). […] Cell-associated radioactivity is then counted and protein quantification is determined using the colorimetric Lowry method. Glucose uptake is estimated by measuring the radioactivity incorporated to the cells by a MicroBeta counter after adding 600 μL per well of scintillant (Optiphase SuperMix3).
Protein quantification is performed by a colorimetric assay derived from the Lowry method. […]

[5] = system: beta pancreatic INS-1 cells; assay: Insulin secretion in response to glucose stimulation; type: cell-based, rat
Method: The cells are cultured in complete medium, RPMI 1640 10 mM glucose supplemented with 1 mM sodium pyruvate, 50 μM 2-mercaptoethanol, 2 mM glutamine, 10 mM HEPES, 100 IU/mL penicillin, 100 μg/mL streptomycin and 10% heat-inactivated fetal calf serum (FCS), as described by Asfari et al. (23). […] After 3 days of culture at 37° C. in a humidified atmosphere of 95% air/5% CO2, the medium is removed and cells are cultured for 16 h in a medium containing 5 mM glucose, 1% FCS (and the tested drugs for long-term evaluation).
The cells are washed again with KRBH and incubated for 1 h in KRBH 0.1% BSA containing 3.5 mM glucose and the tested molecules.
Standards, samples and controls are added to the appropriate wells with a horseradish peroxidase enzyme-labeled monoclonal antibody (conjugate). After incubation, the microplates are washed to remove unbound conjugate and a TMB substrate solution is added to react with the bound conjugate. Finally, after addition of a stop solution, the optical density is measured at 450 nm using a reference wavelength of 620 nm. The intensity of the yellow color is directly proportional to the amount of insulin within the samples.

[6] = system: differentiated 3T3-L1 adipocyte cells; assay: Glucose uptake in 3T3-L1 adipocyte cells; type: cell-based; conditions: 3T3-L1 cells
Method: 3T3-L1 preadipocyte cells were cultured in DMEM containing 1% penicillin-streptomycin (PS) and 10% bovine calf serum at 37° C. in a 5% CO2 atmosphere. […] Differentiation, as measured by the expression of adipogenic markers and the appearance of lipid droplets, usually reaches completion between days 4 and 8. Glucose uptake activity was analyzed by measuring the uptake of radiolabeled glucose. Differentiated 3T3-L1 adipocytes grown in 12-well plates were washed twice with serum-free DMEM and incubated for 2 h at 37° C. with 1 mL DMEM containing 0.1% BSA. […] Next, cells were incubated with or without drugs for different durations in order to evaluate their short-term and long-term effects. To evaluate their short-term effect, cells were incubated with drugs of the invention for 4 hours at 37° C. To evaluate the long-term effect of drugs of the invention, the day prior to the test, cells were pre-incubated with or without drugs for 16 h. The day after, prior to the test, cells were washed and incubated in the presence of the tested molecules for 4 h more. […] After 20 min, glucose uptake was terminated by washing the cells three times with cold PBS. The cells were lysed through incubation for 20 min at 37° C. with 0.7 mL of Triton X-100. Level of radioactivity in the cell lysates was determined using a scintillation counter. Protein quantification was performed by a colorimetric assay derived from the Lowry method.

[7] = drugs combined at a dose as low as 3.3 nM, or used individually
[8] = drugs combined at a dose as low as 10 nM, or used individually
[9] = fenspiride 3.3 nM and metformin 100 μM

**Q.** How did the “enhancement of glucose uptake” value ([1]; 10 nM) turn out when `Cc1c(Cl)cccc1Nc1ccccc1C(=O)O` [tolfenamic acid] was run?
**A.** Its value is “+127%”.

**Q.** And the “enhancement of glucose uptake” value ([1]; 100 nM)?
**A.** Its value is “improvement”.

**Q.** And the “enhancement of glucose uptake” value ([1]; 1 μM)?
**A.** The value was “improvement”.

**Q.** What about the “enhancement of glucose uptake, combination experiment” value (from here on “enhancement … combination experiment”) [1, 7] of the same molecule?
**A.** The value was “No significant effect”.

**Q.** What about the “enhancement … combination experiment” value [1, 8] of the same molecule?
**A.** Its value is “No significant effect”.

**Q.** `C[C@@H]1CC(=O)NN=C1c1ccc(NN=C(C#N)C#N)cc1` [levosimendan] was tested. Which “Percentage of apoptosis reduction” value [2] did it give?
**A.** Its value is 118%.

**Q.** With `CN1CCCC(n2nc(Cc3ccc(Cl)cc3)c3ccccc3c2=O)CC1` (stereo not shown) [azelastine] as the molecule, how does the “Percentage of apoptosis reduction” value [2] read?
**A.** The value was 81%.

**Q.** And the “reduction of glucose production” value ([3]; long-term)?
**A.** The value was −36%.

**Q.** `CO[C@]12C[C@@H](COC(=O)c3cncc(Br)c3)CN(C)[C@@H]1Cc1cn(C)c3cccc2c13` [nicergoline] was tested. Which “Percentage of apoptosis reduction” value [2] did it give?
**A.** The value was 112%.

**Q.** What about the “enhancement of glucose uptake” value ([4]; long-term, 10 μM) of the same molecule?
**A.** Its value is “+28%”.

**Q.** What does the source list for `O=C[C@@H](O)[C@@H](O)[C@H](O)[C@H](O)CO` [D-mannose]?
**A.** Percentage of apoptosis reduction [2]: 129%; reduction of glucose production ([3]; short-term): −22%

**Q.** For `CCN(CC)C(=O)N1CCN(C)CC1` [diethylcarbamazine], which “Percentage of apoptosis reduction” value [2] is on record?
**A.** Its value is 44%.

**Q.** How did the “Percentage of apoptosis reduction” value [2] turn out when `Cc1cccc(Nc2ccncc2S(=O)(=O)NC(=O)NC(C)C)c1` [torasemide] was run?
**A.** Its value is 67%.

**Q.** And the “enhancement of glucose uptake” value ([1]; 0.37 nM)?
**A.** Its value is “+121%”.

**Q.** What about the “enhancement of glucose uptake” value ([1]; 1 nM) of the same molecule?
**A.** The value was “+123%”.

**Q.** What about the “enhancement of glucose uptake” value ([1]; 3.3 nM) of the same molecule?
**A.** The value was “+129%”.

**Q.** What does the source list for `O=C1NCC2(CCN(CCc3ccccc3)CC2)O1` [fenspiride]?
**A.** enhancement of glucose uptake ([1]; 0.37 nM): improvement; enhancement of glucose uptake ([1]; 1 nM): +130%; enhancement of glucose uptake ([1]; 3.3 nM): improvement; enhancement of glucose uptake, combination experiment [1, 7]: No significant effect; enhancement of glucose uptake, combination experiment [1, 8]: No significant effect; enhancement of glucose uptake, combination with metformin [1, 9]: does not lead to any significant improvement; also recorded: No significant effect

**Q.** `C[C@@H](NCCCc1cccc(C(F)(F)F)c1)c1cccc2ccccc12` [cinacalcet] was tested. Which “Percentage of apoptosis reduction” value [2] did it give?
**A.** The value was 167%.

**Q.** And the “enhancement of insulin secretion” value ([5]; long-term pre-treatment, 1 μM)?
**A.** The value was “+55%”.

**Q.** `CN(C)CC[C@@H](c1ccc(Br)cc1)c1ccccn1` [dexbrompheniramine] was tested. Which “Percentage of apoptosis reduction” value [2] did it give?
**A.** The value was 76%.

**Q.** What does the source list for `CN(C)C(=N)N=C(N)N` [metformin]?
**A.** enhancement of glucose uptake, combination with metformin [1, 9]: does not lead to any significant improvement; also recorded: No significant effect; enhancement of glucose uptake, combination with metformin ([1]; ifenprodil 3.3 nM and metformin 100 μM): does not lead to any significant improvement; also recorded: No significant effect

**Q.** `Cc1cccc(C)c1OCC(C)N` (stereo not shown) [mexiletine] was tested. Which “Percentage of apoptosis reduction” value [2] did it give?
**A.** The value was 74%.

**Q.** Which “Percentage of apoptosis reduction” value [2] does the source give for `C=CCNc1nc(NCC=C)nc(N2CCN(C(c3ccc(F)cc3)c3ccc(F)cc3)CC2)n1` [almitrine] here?
**A.** Its value is 103%.

**Q.** And the “enhancement of glucose uptake” value ([6]; long-term, 1 μM)?
**A.** Its value is “+69%”.

**Q.** And the “enhancement of glucose uptake” value ([4]; short-term, 1 μM)?
**A.** Its value is “+80%”.

**Q.** Which “Percentage of apoptosis reduction” value [2] does the source give for `Nc1nc(N)c2nc(-c3ccccc3)c(N)nc2n1` [triamterene] here?
**A.** The value was 64%.

**Q.** What about the “enhancement … combination experiment” value [1, 8] of the same molecule?
**A.** Its value is “No significant effect”.

**Q.** What about the “enhancement of insulin secretion” value ([5]; short-term pre-treatment, 10 μM) of the same molecule?
**A.** Its value is “+37%”.

**Q.** `NCC(CC(=O)O)c1ccc(Cl)cc1` (racemic) [baclofen] was tested. Which “Percentage of apoptosis reduction” value [2] did it give?
**A.** The value was 84%.

**Q.** With `CCN(CC)CCOCCOC(=O)C1(c2ccccc2)CCCC1` [carbetapentane] as the molecule, how does the “Percentage of apoptosis reduction” value [2] read?
**A.** Its value is 103%.

**Q.** What about the “enhancement of glucose uptake” value ([6]; short-term, 0.1 μM (100 nM)) of the same molecule?
**A.** Its value is “+58%”.

**Q.** For `c1cnc(N2CCN(Cc3ccc4c(c3)OCO4)CC2)nc1` [piribedil], which “enhancement of glucose uptake” value ([6]; short-term, 10 nM) is on record?
**A.** The value was “+68%”.

**Q.** With `Cc1ccc(C(=O)C(C)CN2CCCCC2)cc1` (stereo not shown) [tolperisone] as the molecule, how does the “Percentage of apoptosis reduction” value [2] read?
**A.** The value was 78%.
